Test results: patent publication US20090186361A1, “METHODS OF PREDICTING THE PHARMACEUTICAL TOXICITY OF TAXANES” (priority 2008, published 2009)

Columns and labels:
CYP3A5 = test: Regression of Toxicity Index on CYP3A5 SNP genotype of recipient subjects; format: in vivo, human; settings: for Para. Est., TI5 vs CYP3A5_3A (multivariable): multivariable analysis best model; for Para. Est., TI5 vs CYP3A5_3A (multivariable) / Para. Est., TI5 vs CYP3A5_3A1 / Para. Est., TI5 vs CYP3A5_3A: cycle 5
Excerpt: The GENOMELAB SNPSTREAM™ (Beckman) was utilized to accommodate up to 92,000 genotypes per day. This automated, multiplexed system can process up to 48 SNPs in each well of an arrayed 384-well plate. The SNPSTREAM™ operates at a consistent cost per genotype or per sample, regardless of run throughput, allowing users to cost-effectively zero in on targets with low-throughput studies as well as conduct high-throughput analyses.
The SNPSTREAM™ Genotyping System features a protocol with three steps. The technology is based on single-based primer extension technology. The system's high sensitivity delivers results using as little as 2 ng of genomic DNA. SNPWARE™ reagent kits were used. The kits included ready-to-use reagents, all performed in the original PCR plate according to the manufacturer's instructions, and incorporated herein by reference in its entirety.
Multiplexed reactions were spatially resolved on a SNPWARE™ Tag Array plate. Each of the 384 wells in a plate contained 16 or 52 unique oligonucleotides of a known sequence, or tag. Each tag on the plate was complementary to one of the tags of the 12 or 48 extension primers, plus four controls to ensure accuracy. After transfer to the Tag Array plate, each SNP was hybridized to its complementary tag. SNPs were then identified by their position in the well.
The process involved a multiplex PCR followed by an annealing reaction of the oligonucleotide to the specific PCR product. Next the oligonucleotide was extended by a single base which was fluorescently labeled with a terminating NTP and finally detected by two-colored fluorescence specific for the allele.
For each SNP, the -PCRU and -PCRL primers were first used to amplify a relevant DNA fragment surrounding the target SNP site. The components per reaction were: H2O, 3.0 μl; 10× PCR Buffer II, 0.5 μl; MgCl2 (25 mM), 1.0 μl; dNTPs (2.5 mM each), 0.18 μl; PCR Primer Pool (2.5 μM each), 0.1 μl; AMPLITAQ GOLD™ (5 U/μl), 0.125 μl for a total volume of 5.0 μl per reaction.
Primer -SNPU or SNPL was then used for single-base extension reaction. The thermocycler program was as follows: Step 1: 96° C. for 3 min; Step 2: 94° C. for 20 sec; Step 3: 40° C. for 11 sec; and Step 5: return to step 2 59 times, and finally to hold at 4° C.
(§1) A preliminary data analysis focused on the relationship between the Toxicity Index and the recipient subjects' demographic/genetic information. […] Univariate linear regression analysis was conducted first to find significant covariates in predicting the Toxicity Index in one of five cycles, then multivariable analysis was used to determine the best model in fitting the data. A mixed model for repeated measurement was implemented in modeling Toxicity Index in the first five cycles, and also in all cycles. Autoregressive covariance structure was used in the mixed model. SAS and Minitab were used in the analysis.
Covariates in the analysis included recoded binary demographic variables (sex, race, site, grade, stage) and recoded binary genetic variables.
Multivariable regression analysis was used to find the best model in predicting the Toxicity Index in each of the first five cycles.

[1] = Toxicity Index (TI) computed from graded treatment-attributable adverse events (NCI CTC) of recipient subjects, per treatment cycle; format: in vivo, human; parameters: key to Toxicity Index TI9 Mean / Toxicity Index TI12 Mean / Toxicity Index TI13 Mean / Toxicity Index TI16 Mean / Toxicity Index TI17 Mean / Toxicity Index TI19 Mean / Toxicity Index TI1 Mean / Toxicity Index TI2 Mean / Toxicity Index TI4 Mean: weighted sum of ordered recoded CTC grades; ≥3 = DLT; settings: mean over recipient subjects; for Toxicity Index TI1 Mean: cycle 1, score between 0 and 5; for Toxicity Index TI2 Mean: cycle 2; for Toxicity Index TI3 Mean: cycle 3; for Toxicity Index TI4 Mean: cycle 4; for Toxicity Index TI5 Mean: cycle 5; for Toxicity Index TI6 Mean: cycle 6; for Toxicity Index TI7 Mean: cycle 7; for Toxicity Index TI8 Mean: cycle 8; for Toxicity Index TI9 Mean: cycle 9; for Toxicity Index TI10 Mean: cycle 10; for Toxicity Index TI11 Mean: cycle 11; for Toxicity Index TI12 Mean: cycle 12; for Toxicity Index TI13 Mean: cycle 13; for Toxicity Index TI14 Mean: cycle 14; for Toxicity Index TI15 Mean: cycle 15; for Toxicity Index TI16 Mean: cycle 16; for Toxicity Index TI17 Mean: cycle 17; for Toxicity Index TI18 Mean: cycle 18; for Toxicity Index TI19 Mean: cycle 19; for Toxicity Index TI20 Mean: cycle 20; for Toxicity Index TI21 Mean: cycle 21
Excerpt: Recipient subject-specific characteristics, medical and treatment histories, doses of experimental agents, and graded toxicities were extracted from case report forms. Toxicity data were represented for each subject as a set of treatment-attributable adverse events, each graded (0, 1, 2, 3, or 4) according to NCI Common Toxicity Criteria (CTC). The term “toxicity profile” as used herein refers to the collection of graded toxicities observed for an individual recipient subject.
To include all trials in the same analysis, a common definition of dose limiting toxicity (DLT) was adopted. Specifically, DLT was defined as occurring whenever any one of the following was observed: grade 4 hematological toxicity (grade 4 neutropenia or thrombocytopenia of any duration); a grade 3 or 4 non-hematological toxicity (excluding nausea, vomiting, and alopecia); febrile neutropenia of any grade.
To identify risk factors and other pre-trial characteristics of interest, several ways of summarizing the toxicity profile of a given recipient subject into a single measure of overall severity were examined as described, for example in Rogatko et al., (2004) Clin. Cancer Res. 10:4645-4651, incorporated herein by reference in its entirety. A summary measure that takes into account all observed toxicity grades rather than just the most severe one was used. The summary measure, the Toxicity Index (TI), is computed according to the following algorithm: • (a) recode each hematologic toxicity as the maximum of 0 and the observed grade minus one (so that a grade 3 toxicity is dose limiting irrespective of whether or not it is hematologic). • (b) Let the toxicity grades in a subject's recoded toxicity profile be represented in descending order by the sequence X1≧X2≧ . . . ≧Xn • (c) Calculate the subject's TI score as the weighted sum of the ordered toxicity grades:
Any score greater than or equal to 3 corresponds to a DLT according to the definition given above, and the maximum toxicity grade is the integer part of the final score. […] All toxicity grades are taken into account, though lower grades will contribute less to the final score.
The score is a number between 0 and 5.
Thirty (30) recipient subjects already receiving treatment with paclitaxel were screened for the presence of SNPs in the CYP2C8 and TUBB loci. Clinical data from each of the recipient subjects was used to first calculate a Toxicity Index (TI) value for each individual according to the method presented in Example 1, above. The genotype for each recipient subject with regard to the SNPs of CYP2C8 and TUBB was determined using SNPWARE™ and single base extension according to the methods of Example 4, above.
as §1

SMILES: CC(=O)O[C@@]12CO[C@@H]1C[C@H](O)[C@@]1(C)C(=O)[C@H](O)C3=C(C)[C@@H](OC(=O)[C@H](O)[C@@H](NC(=O)OC(C)(C)C)c4ccccc4)C[C@@](O)([C@@H](OC(=O)c4ccccc4)[C@H]21)C3(C)C (relative stereo) [Docetaxel, Benzenepropanoic acid, β-(((1,1-dimethylethoxy)carbonyl)amino)-α-hydroxy-, 12b-(acetyloxy)-12-(benzoyloxy)-2a,3,4,4a,5,6,9,10,11,12,12a,12b-dodecahydro-4,6,11-trihydroxy-4a,8,13,13-tetramethyl-5-oxo-7,11-methano-1H-cyclodeca(3,4)benz(1,2-b)oxet-9-yl ester trihydrate, (2aR-(2aα,4β,4aβ,6β,9(αR*,βS),11α,12α,12aα,12bα))-]
- Para. Est., TI5 vs CYP3A5_3A (multivariable) (CYP3A5; rs776746, AG = 1, GG/AA = 0, P-value 0.024): −1.739
- Para. Est., TI4 vs CYP3A5_3A1 (CYP3A5; univariate linear regression, cycle 4, rs15524, TC = 1, CC/TT = 0, P-value 0.045): −1.079
- Para. Est., TI4 vs CYP3A5_3A (CYP3A5; univariate linear regression, cycle 4, rs776746, AG = 1, GG/AA = 0, P-value 0.045): −1.079
- Para. Est., TI5 vs CYP3A5_3A1 (CYP3A5; univariate linear regression, rs15524, TC = 1, CC/TT = 0, P-value 0.024): −1.739
- Para. Est., TI5 vs CYP3A5_3A (CYP3A5; univariate linear regression, rs776746, AG = 1, GG/AA = 0, P-value 0.024): −1.739
- Toxicity Index TI1 Mean [1]: 2.727
- Toxicity Index TI2 Mean [1]: 2.840
- Toxicity Index TI3 Mean [1]: 2.737
- Toxicity Index TI4 Mean [1]: 3.058
- Toxicity Index TI5 Mean [1]: 2.669
- Toxicity Index TI6 Mean [1]: 2.875
- Toxicity Index TI7 Mean [1]: 2.646
- Toxicity Index TI8 Mean [1]: 2.804
- Toxicity Index TI9 Mean [1]: 2.438
- Toxicity Index TI10 Mean [1]: 2.623
- Toxicity Index TI11 Mean [1]: 2.297
- Toxicity Index TI12 Mean [1]: 2.090
- Toxicity Index TI13 Mean [1]: 2.404
- Toxicity Index TI14 Mean [1]: 2.171
- Toxicity Index TI15 Mean [1]: 2.083
- Toxicity Index TI16 Mean [1]: 1.875
- Toxicity Index TI17 Mean [1]: 1.875
- Toxicity Index TI18 Mean [1]: 1.875
- Toxicity Index TI19 Mean [1]: 2.625
- Toxicity Index TI20 Mean [1]: 1.875
- Toxicity Index TI21 Mean [1]: 1.875

SMILES: CC(=O)O[C@H]1C(=O)[C@@]2(C)[C@H]([C@H](OC(=O)c3ccccc3)[C@]3(O)C[C@H](OC(=O)[C@H](O)[C@@H](NC(=O)c4ccccc4)c4ccccc4)C(C)=C1C3(C)C)[C@]1(OC(C)=O)CO[C@@H]1C[C@@H]2O [Paclitaxel, (2aR,4S,4aS,6R,9S,11S,12S,12aR,12bS)-1,2a,3,4,4a,6,9,10,11,12,12a,12b-Dodecahydro-4,6,9,11,12,12b-hexahydroxy-4a,8,13,13-tetramethyl-7,11-methano-5H-cyclodeca(3,4)benz(1,2-b)oxet-5-one 6,12b-diacetate, 12-benzoate, 9-ester with (2R,3S)-N-benzoyl-3-phenylisoserine]
- Para. Est., TI5 vs CYP3A5_3A (multivariable) (CYP3A5; rs776746, GG = 1, AG = 0, P-value 0.022): 1.477
- Para. Est., TI5 vs CYP3A5_3A1 (CYP3A5; univariate linear regression, rs15524, TT = 1, TC = 0, P-value 0.022): 1.477
- Para. Est., TI5 vs CYP3A5_3A (CYP3A5; univariate linear regression, rs776746, GG = 1, AG = 0, P-value 0.022): 1.477
- Toxicity Index TI1 Mean [1]: 2.175
- Toxicity Index TI2 Mean [1]: 2.399
- Toxicity Index TI3 Mean [1]: 2.491
- Toxicity Index TI4 Mean [1]: 2.787
- Toxicity Index TI5 Mean [1]: 2.696
- Toxicity Index TI6 Mean [1]: 2.580
- Toxicity Index TI7 Mean [1]: 2.529
- Toxicity Index TI8 Mean [1]: 2.206
- Toxicity Index TI9 Mean [1]: 2.292
- Toxicity Index TI10 Mean [1]: 1.875
- Toxicity Index TI11 Mean [1]: 2.583
- Toxicity Index TI12 Mean [1]: 1.750
- Toxicity Index TI13 Mean [1]: 1.875
- Toxicity Index TI14 Mean [1]: 1.875
- Toxicity Index TI15 Mean [1]: 1.875
- Toxicity Index TI16 Mean [1]: 2.583
- Toxicity Index TI17 Mean [1]: 2.583
- Toxicity Index TI18 Mean [1]: 2.583
- Toxicity Index TI19 Mean [1]: 2.583
- Toxicity Index TI20 Mean [1]: 2.944
- Toxicity Index TI21 Mean [1]: 3.469
